Assay results from patent US11168073B2, “3,3-difluoroallylamines or salts thereof and pharmaceutical compositions comprising the same” (YUHAN CORPORATION, priority 2018, dated 2021).
Structures can show the parent of a compound that is named as a salt.

Tests used:
Type in all cases: biochemical
recombinant human VAP-1 = molecular target: T1, recombinant human VAP-1 (Homo sapiens, UniProt Q16853); test: Activity evaluation on recombinant human VAP-1 (Amplex Red/HRP-coupled hydrogen peroxide assay, benzylamine substrate); details: recombinant human VAP-1, benzylamine substrate; read-out: Inhibitory Activity (IC50, nM) human VAP-1
T1 construct: purchased R&D systems
T1 sequence (Q16853 1-763): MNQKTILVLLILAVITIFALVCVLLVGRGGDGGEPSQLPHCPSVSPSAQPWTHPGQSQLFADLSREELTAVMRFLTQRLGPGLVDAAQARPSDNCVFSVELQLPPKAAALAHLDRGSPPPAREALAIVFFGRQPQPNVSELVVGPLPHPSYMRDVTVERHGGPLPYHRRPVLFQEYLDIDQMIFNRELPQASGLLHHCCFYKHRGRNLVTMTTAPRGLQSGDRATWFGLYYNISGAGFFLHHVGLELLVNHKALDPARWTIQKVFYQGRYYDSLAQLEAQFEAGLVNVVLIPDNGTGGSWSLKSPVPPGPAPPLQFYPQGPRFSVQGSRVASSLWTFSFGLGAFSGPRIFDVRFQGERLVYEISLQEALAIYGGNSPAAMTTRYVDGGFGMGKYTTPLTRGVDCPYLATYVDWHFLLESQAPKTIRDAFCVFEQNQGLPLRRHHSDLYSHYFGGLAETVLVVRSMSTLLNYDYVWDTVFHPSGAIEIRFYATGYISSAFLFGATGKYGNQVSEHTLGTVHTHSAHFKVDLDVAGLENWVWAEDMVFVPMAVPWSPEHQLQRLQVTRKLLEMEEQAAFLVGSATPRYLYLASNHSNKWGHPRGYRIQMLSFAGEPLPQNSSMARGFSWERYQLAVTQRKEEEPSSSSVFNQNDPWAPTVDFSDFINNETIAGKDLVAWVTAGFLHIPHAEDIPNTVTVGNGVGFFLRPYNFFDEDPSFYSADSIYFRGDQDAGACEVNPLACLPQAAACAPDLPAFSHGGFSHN
Summary of the method: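 Hydrogen peroxide from benzylamine (1 mM) oxidation by human recombinant VAP-1 detected via HRP-coupled Amplex Red (200 uM) fluorescence, kinetic over 1–2 h. Enzyme and compound preincubated 30 min at 37 °C, pH 7.4 phosphate; 8-point dose response, signal-rate decrease versus DMSO control fitted to four-parameter logistic for IC50.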

[1] = molecular target: T2, recombinant human MAO-A (monoamine oxidase-A) (Homo sapiens, UniProt P21397); test: Activity evaluation on recombinant human MAO-A (Amplex Red/HRP-coupled assay, 0.5 mM tyramine substrate); details: 0.5 mM tyramine substrate, read-out: Inhibitory Activity (IC50, nM) MAO-A
T2 construct: purchased Sigma-Aldrich
T2 sequence (P21397 1-527): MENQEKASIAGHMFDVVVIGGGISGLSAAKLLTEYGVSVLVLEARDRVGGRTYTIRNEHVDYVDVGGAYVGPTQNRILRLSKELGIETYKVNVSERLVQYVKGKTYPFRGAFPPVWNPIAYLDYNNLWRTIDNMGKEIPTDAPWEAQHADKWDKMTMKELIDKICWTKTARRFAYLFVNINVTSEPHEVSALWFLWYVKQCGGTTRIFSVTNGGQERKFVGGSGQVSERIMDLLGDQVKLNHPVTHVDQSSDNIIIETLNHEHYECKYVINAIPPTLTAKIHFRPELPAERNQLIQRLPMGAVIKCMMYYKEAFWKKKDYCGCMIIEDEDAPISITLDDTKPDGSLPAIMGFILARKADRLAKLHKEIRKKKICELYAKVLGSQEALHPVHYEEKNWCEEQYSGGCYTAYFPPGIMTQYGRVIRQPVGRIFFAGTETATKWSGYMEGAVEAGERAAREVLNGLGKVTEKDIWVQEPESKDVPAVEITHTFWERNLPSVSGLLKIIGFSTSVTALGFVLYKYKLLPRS
Summary of the method: (§1)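 Using an HRP-coupled Amplex Red readout (544/590 nm, kinetic over 1–2 h), IC50 values were fitted by 4-parameter logistic model to percent decrease in signal rate against DMSO control. Compounds (1:3 dilutions, 8 points, <1% DMSO) sat 30 min at 37 °C with enzyme in pH 7.4 phosphate buffer before substrate, 200 uM Amplex Red and HRP were added.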

[2] = molecular target: T3, recombinant human MAO-B (monoamine oxidase-B) (Homo sapiens, UniProt P27338); test: Activity evaluation on recombinant human MAO-B (Amplex Red/HRP-coupled assay, 1 mM benzylamine substrate); details: 1 mM benzylamine substrate, read-out: Inhibitory Activity (IC50, nM) MAO-B
T3 construct: purchased Sigma-Aldrich
T3 sequence (P27338 1-520): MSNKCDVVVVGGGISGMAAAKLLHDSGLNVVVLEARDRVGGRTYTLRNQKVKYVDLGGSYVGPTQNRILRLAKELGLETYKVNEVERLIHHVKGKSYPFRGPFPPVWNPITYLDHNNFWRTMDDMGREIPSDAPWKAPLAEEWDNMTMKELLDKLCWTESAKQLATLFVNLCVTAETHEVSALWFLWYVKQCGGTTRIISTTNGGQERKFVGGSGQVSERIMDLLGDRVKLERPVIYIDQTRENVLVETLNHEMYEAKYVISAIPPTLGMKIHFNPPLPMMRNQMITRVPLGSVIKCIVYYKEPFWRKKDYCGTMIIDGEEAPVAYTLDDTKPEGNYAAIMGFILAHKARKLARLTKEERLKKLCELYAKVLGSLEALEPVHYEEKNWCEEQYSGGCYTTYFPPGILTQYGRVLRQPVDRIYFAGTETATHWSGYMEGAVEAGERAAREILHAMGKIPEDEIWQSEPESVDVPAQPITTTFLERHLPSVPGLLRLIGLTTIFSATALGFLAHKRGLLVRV
Summary of the method: as §1

[3] = molecular target: T4, recombinant human DAO (diamine oxidase) (Homo sapiens, UniProt P19801); test: Activity evaluation on recombinant human DAO (Amplex Red/HRP-coupled assay, 1 mM putrescine substrate); details: 1 mM putrescine substrate, read-out: Inhibitory Activity (IC50, nM) DAO
T4 construct: purchased R&D systems
T4 sequence (P19801 20-751): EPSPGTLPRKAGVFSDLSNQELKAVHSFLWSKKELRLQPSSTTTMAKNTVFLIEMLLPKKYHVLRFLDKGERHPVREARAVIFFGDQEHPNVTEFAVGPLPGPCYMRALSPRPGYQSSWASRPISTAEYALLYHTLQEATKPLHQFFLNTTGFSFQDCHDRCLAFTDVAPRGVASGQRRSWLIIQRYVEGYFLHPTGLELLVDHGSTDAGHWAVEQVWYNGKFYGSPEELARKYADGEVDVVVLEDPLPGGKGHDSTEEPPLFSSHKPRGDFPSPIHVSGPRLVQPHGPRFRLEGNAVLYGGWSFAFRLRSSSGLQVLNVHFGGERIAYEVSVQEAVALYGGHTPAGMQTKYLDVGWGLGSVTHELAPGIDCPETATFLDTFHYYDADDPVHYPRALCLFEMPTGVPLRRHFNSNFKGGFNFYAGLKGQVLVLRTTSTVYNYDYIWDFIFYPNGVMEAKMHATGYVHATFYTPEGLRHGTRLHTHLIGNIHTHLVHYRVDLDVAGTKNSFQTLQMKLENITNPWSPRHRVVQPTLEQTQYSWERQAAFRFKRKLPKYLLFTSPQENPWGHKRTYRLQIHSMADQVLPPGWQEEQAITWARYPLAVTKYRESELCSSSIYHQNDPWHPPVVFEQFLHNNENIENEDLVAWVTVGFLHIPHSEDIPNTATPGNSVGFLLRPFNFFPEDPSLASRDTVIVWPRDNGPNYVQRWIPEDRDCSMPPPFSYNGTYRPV
Summary of the method: as §1

Row | Structure (SMILES) | IC50 (recombinant human VAP-1) [nM] | IC50 [1] [nM] | IC50 [2] [nM] | IC50 [3] [nM]
1 | Cc1cc(-c2ccc(N3CCCC3=O)cc2)cnc1-n1cnn(CC(CN)=C(F)F)c1=O [Example 230, 2-[2-(aminomethyl)-3,3-difluoro-allyl]-4-[3-methyl-5-[4-(2-oxopyrrolidin-1-yl)phenyl]-2-pyridyl]-1,2,4-triazol-3-one Trifluoroacetate] | 0.7 | > 100000 | 77000 | 24000
2 | CC(=O)c1ccc(-c2cnc(-n3cnn(CC(CN)=C(F)F)c3=O)c(C)c2)s1 [Example 231, 4-[5-(5-acetyl-2-thienyl)-3-methyl-2-pyridyl]-2-[2-(aminomethyl)-3,3-difluoro-allyl]-1,2,4-triazol-3-one Trifluoroacetate] | 0.2 | 40400 | 1950 | 3910
3 | Cc1cc(-c2cccc(-c3cc[nH]n3)c2)cnc1-n1cnn(CC(CN)=C(F)F)c1=O [Example 232, 2-[2-(aminomethyl)-3,3-difluoro-allyl]-4-[3-methyl-5-[3-(1H-pyrazol-3-yl)phenyl]-2-pyridyl]-1,2,4-triazol-3-one Trifluoroacetate] | 0.5 | > 100000 | 1100 | 15000
4 | Cc1cc(-c2ccc3cn[nH]c3c2)cnc1-n1cnn(CC(CN)=C(F)F)c1=O [Example 233, 2-[2-(aminomethyl)-3,3-difluoro-allyl]-4-[5-(1H-indazol-6-yl)-3-methyl-2-pyridyl]-1,2,4-triazol-3-one Trifluoroacetate] | 0.2 | > 100000 | 200 | 36000
5 | Cc1cc(-c2cccc(S(C)(=O)=O)c2)cnc1-n1cnn(CC(CN)=C(F)F)c1=O [Example 234, 2-[2-(aminomethyl)-3,3-difluoro-allyl]-4-[3-methyl-5-(3-methylsulfonylphenyl)-2-pyridyl]-1,2,4-triazol-3-one Trifluoroacetate] | 0.4 | > 100000 | 1800 | 7500
6 | Cc1cc(-c2cccc(N3CCNCC3)c2)cnc1-n1cnn(CC(CN)=C(F)F)c1=O [Example 235, 2-[2-(aminomethyl)-3,3-difluoro-allyl]-4-[3-methyl-5-(3-piperazin-1-ylphenyl)-2-pyridyl]-1,2,4-triazol-3-one Ditrifluoroacetate] | 1.4 | > 100000 | 840 | > 100000
7 | Cc1cc(-c2ccc(C(=O)N3CCOCC3)cc2)cnc1-n1cnn(CC(CN)=C(F)F)c1=O [Example 236, 2-[2-(aminomethyl)-3,3-difluoro-allyl]-4-[3-methyl-5-[4-(morpholine-4-carbonyl)phenyl]-2-pyridyl]-1,2,4-triazol-3-one Trifluoroacetate] | 0.8 | > 100000 | > 100000 | 6700
8 | Cc1cc(-c2ccc(N3CCOCC3)cc2)cnc1-n1cnn(CC(CN)=C(F)F)c1=O [Example 237, 2-[2-(aminomethyl)-3,3-difluoro-allyl]-4-[3-methyl-5-(4-morpholinophenyl)-2-pyridyl]-1,2,4-triazol-3-one Trifluoroacetate] | 0.42 | > 100000 | 84000 | 6100
9 | Cc1cc(-c2ccc(S(=O)(=O)N(C)C)cc2)cnc1-n1cnn(CC(CN)=C(F)F)c1=O [Example 238, 4-[6-[1-[2-(aminomethyl)-3,3-difluoro-allyl]-5-oxo-1,2,4-triazol-4-yl]-5-methyl-3-pyridyl]-N,N-dimethyl-benzenesulfonamide trifluoroacetate] | 0.14 | > 100000 | 1800 | 310
10 | Cc1cc(-c2cccc(-c3nc[nH]n3)c2)cnc1-n1cnn(CC(CN)=C(F)F)c1=O [Example 239, 2-[2-(aminomethyl)-3,3-difluoro-allyl]-4-[3-methyl-5-[3-(1H-1,2,4-triazol-3-yl)phenyl]-2-pyridyl]-1,2,4-triazol-3-one trifluoroacetate] | 2.7 | > 100000 | 14000 | 11000
11 | Cc1cc(C#Cc2cnn(C)c2)cnc1-n1cnn(CC(CN)=C(F)F)c1=O [Example 240, 2-[2-(aminomethyl)-3,3-difluoro-allyl]-4-[3-methyl-5-[2-(1-methylpyrazol-4-yl)ethynyl]-2-pyridyl]-1,2,4-triazol-3-one trifluoroacetate] | 1 | > 100000 | 15000 | 30000
12 | Cc1cc(C#Cc2ccc(N(C)C)nc2)cnc1-n1cnn(CC(CN)=C(F)F)c1=O [Example 241, 2-[2-(aminomethyl)-3,3-difluoro-allyl]-4-[5-[2-[6-(dimethylamino)-3-pyridyl]ethynyl]-3-methyl-2-pyridyl]-1,2,4-triazol-3-one Trifluoroacetate] | 1.3 | > 100000 | 6300 | 25000
13 | Cc1cc(C#Cc2ccc(N3CCOCC3)nc2)cnc1-n1cnn(CC(CN)=C(F)F)c1=O [Example 242, 2-[2-(aminomethyl)-3,3-difluoro-allyl]-4-[3-methyl-5-[2-(6-morpholino-3-pyridyl)ethynyl]-2-pyridyl]-1,2,4-triazol-3-one Trifluoroacetate] | 1 | > 100000 | 29000 | 4200
